Assay results published in PMC8790893 (Chemical Science, 2021).
Where two headings read alike, the source gives them in different places. Blank lines part the entries; values can stand above or below the compound they belong to.

Legend:
[1] = system: DOCA-salt-induced organ damage; conditions: rats; by blocking the activation of TH17 cells; cited from earlier work
prostate cancer = conditions: cited from earlier work
AR [2] = conditions: read-out: IC50 in AR transcriptional assay; cited from earlier work
AR [3] = conditions: read-out: IC50 in AR competitive binding assay; cited from earlier work
sigma 1 receptor = conditions: cited from earlier work
IL-17A = assay: ELISA of IL-17A in spinal cord and brain supernatant; assay type: in vivo; conditions: EAE mice
[4] = system: blood–brain barrier (BBB); assay: In vivo imaging of brain inflammation; conditions: EAE mice, day 9 post-administration
[5] = system: experimental autoimmune encephalomyelitis (EAE); assay: MOG35-55-induced EAE: clinical signs, disease onset, body weight; assay type: in vivo, female C57BL/6 mice; conditions: EAE mice; for EAE induced body weight loss: 50 mg kg^−1 orally every day from day 12; for mean disease onset date: 50 mg kg^−1 orally every day from day 12, n = 8
RORγt-LBD (262-518) = target: T1, RORγt-LBD (262-518) (Homo sapiens, UniProt P51449); assay type: biochemical
T1 sequence (P51449 262-518): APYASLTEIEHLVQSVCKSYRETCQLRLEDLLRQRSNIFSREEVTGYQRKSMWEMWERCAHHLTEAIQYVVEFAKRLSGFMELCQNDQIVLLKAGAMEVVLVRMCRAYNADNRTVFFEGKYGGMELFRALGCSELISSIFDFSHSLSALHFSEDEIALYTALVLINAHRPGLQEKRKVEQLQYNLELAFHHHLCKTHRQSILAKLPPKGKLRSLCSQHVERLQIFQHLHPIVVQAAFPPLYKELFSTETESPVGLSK

RORγt in HEK293T cells = target: T2, RORγt in HEK293T cells (Homo sapiens, UniProt P51449); assay: Cellular thermal shift assay; assay type: cell-based; conditions: HEK293T cells exogenously expressing RORγt, 60 μM, 2 h
T2 sequence (P51449 1-497 isoform P51449-2): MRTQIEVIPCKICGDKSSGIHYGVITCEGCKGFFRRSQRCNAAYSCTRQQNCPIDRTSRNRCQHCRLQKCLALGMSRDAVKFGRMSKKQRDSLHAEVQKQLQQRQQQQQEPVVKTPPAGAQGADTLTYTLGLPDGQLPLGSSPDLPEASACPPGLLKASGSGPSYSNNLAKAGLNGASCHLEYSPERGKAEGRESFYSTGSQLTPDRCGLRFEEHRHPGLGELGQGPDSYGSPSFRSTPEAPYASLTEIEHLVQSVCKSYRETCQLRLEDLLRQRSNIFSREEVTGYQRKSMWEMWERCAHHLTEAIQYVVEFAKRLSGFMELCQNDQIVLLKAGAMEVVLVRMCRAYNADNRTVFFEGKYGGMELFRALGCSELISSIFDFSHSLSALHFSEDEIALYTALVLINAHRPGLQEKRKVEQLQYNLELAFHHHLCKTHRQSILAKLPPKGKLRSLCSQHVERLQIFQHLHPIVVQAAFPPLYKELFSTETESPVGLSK

RORγt-LBD [6] = target: T3, RORγt-LBD (Homo sapiens, UniProt P51449); assay: Intrinsic fluorescence-quenching based assay; assay type: binding; conditions: RORγt-LBD 30 μM; compound 0-50 μM; excitation 280 nm
T3 sequence (P51449 262-518): T1 sequence (P51449 262-518)

RORγt-LBD-SRC2.2 [7] = target: T4, RORγt-LBD-SRC2.2 (Homo sapiens, UniProt P51449); assay: Drug affinity responsive target stability; assay type: binding; conditions: 60 μM protein, 40 °C, 10 min, dose-dependent
T4 sequence (P51449 with tags, fused parts or gaps): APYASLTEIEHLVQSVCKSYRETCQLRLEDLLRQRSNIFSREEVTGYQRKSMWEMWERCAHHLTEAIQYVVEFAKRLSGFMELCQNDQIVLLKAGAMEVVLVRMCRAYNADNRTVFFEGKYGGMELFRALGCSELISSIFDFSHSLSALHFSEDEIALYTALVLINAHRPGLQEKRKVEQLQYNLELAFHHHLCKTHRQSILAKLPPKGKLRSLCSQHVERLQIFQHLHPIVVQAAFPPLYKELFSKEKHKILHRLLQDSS

TH17 cells = assay: Flow cytometry of spleen cells of EAE mice; assay type: in vivo; conditions: CD4 and IL-17 dual-staining
spinal cord white matter = assay: Histochemical analysis of spinal cords; assay type: in vivo; conditions: EAE mice, 50 mg kg^−1 orally, LFB and H&E staining
RORγt-LBD [8] = target: T3, RORγt-LBD; assay: Isothermal titration calorimetry; assay type: binding
5-lipoxygenase = conditions: read-out: IC50, 5-lipoxygenase; cited from earlier work
RORγt-LBD-SRC2.2 [9] = target: T4, RORγt-LBD-SRC2.2; assay: Co-crystallization and X-ray structure determination; conditions: resolution 1.99 Å
human RORγt = target: T5, human RORγt (Homo sapiens, UniProt P51449); assay: RORγt-GAL4 dual-luciferase reporter assay; assay type: cell-based
T5 sequence (P51449 97-516): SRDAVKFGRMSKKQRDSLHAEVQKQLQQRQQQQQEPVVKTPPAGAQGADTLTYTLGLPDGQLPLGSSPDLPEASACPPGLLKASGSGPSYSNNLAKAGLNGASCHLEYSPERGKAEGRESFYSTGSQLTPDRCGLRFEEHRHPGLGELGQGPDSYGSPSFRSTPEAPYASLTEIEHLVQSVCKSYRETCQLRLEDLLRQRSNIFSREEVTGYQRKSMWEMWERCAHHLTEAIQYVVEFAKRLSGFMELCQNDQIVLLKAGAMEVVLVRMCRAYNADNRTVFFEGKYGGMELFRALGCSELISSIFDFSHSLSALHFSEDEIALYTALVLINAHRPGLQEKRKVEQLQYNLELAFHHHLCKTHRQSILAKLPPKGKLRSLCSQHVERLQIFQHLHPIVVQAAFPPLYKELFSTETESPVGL

Compound: CC(=O)S[C@@H]1CC2=CC(=O)CC[C@]2(C)[C@H]2CC[C@@]3(C)[C@@H](CC[C@@]34CCC(=O)O4)[C@H]12 [Spironolactone]
effect on DOCA-salt-induced organ damage [1]: decrease DOCA-salt-induced organ damage
effect on the incidence of prostate cancer (prostate cancer): reduce the incidence of prostate cancer

Compound: C[C@]12CC[C@H](O)CC1=CC[C@@H]1[C@@H]2CC[C@]2(C)C(c3cccnc3)=CC[C@@H]12 [abiraterone, Abiraterone]
IC50 (AR [2]): 9.4 µM
IC50 (AR [3]): 7.6 µM

Compound: CCN(CC)CCCC(C)Nc1ccnc2cc(Cl)ccc12 (centres unmarked) [chloroquine]
pKi, sigma 1 receptor (sigma 1 receptor): 7.1

Compound: CCN(CCO)CCCC(C)Nc1ccnc2cc(Cl)ccc12 (centres unmarked) [hydroxychloroquine]
pKi, sigma 1 receptor (sigma 1 receptor): 6.9

IC50 (RORγt-LBD (262-518)): 280 nM
Tm values of RORγt (CETSA) (RORγt in HEK293T cells): significantly increased
proteolysis of RORγt-LBD-SRC2.2 by pronase E (RORγt-LBD-SRC2.2 [7]): clearly decreased
Kd (RORγt-LBD [8]): 1060 nM
Compound: CC1(C)CC[C@]2(C(=O)O)CC[C@]3(C)C(=CC[C@@H]4[C@@]5(C)CCC(=O)C(C)(C)[C@@H]5CC[C@]43C)[C@@H]2C1 [oleanonic acid, Oleanonic Acid]
IL-17A protein expression in brains and spinal cords (IL-17A): effectively reduced
EAE-induced BBB disruption (brain BSA-Cy5.5 accumulation) [4]: remitted the EAE-induced BBB disruption obviously
EAE induced body weight loss [5]: significantly reversed
mean disease onset date [5]: 15.3 ± 0.2 days
fluorescence quenching of RORγt-LBD (RORγt-LBD [6]): dose-dependently induced fluorescence quenching
frequency of pro-inflammatory TH17 cells in the spleen (TH17 cells): reduced frequency
immune cell infiltrations in white matter of spinal cords (spinal cord white matter): reduced

Compound: Oc1cc(O)cc(/C=C/c2ccc(O)c(O)c2)c1 [piceatannol]
IC50 (5-lipoxygenase): 240 nM

Compound: Oc1ccc(/C=C/c2cc(O)cc(O)c2)cc1 [resveratrol]
IC50 (5-lipoxygenase): 4900 nM

IC50 (RORγt-LBD (262-518)): 10 nM
Tm values of RORγt (CETSA) (RORγt in HEK293T cells): significantly increased
proteolysis of RORγt-LBD-SRC2.2 by pronase E (RORγt-LBD-SRC2.2 [7]): clearly decreased
Kd (RORγt-LBD [8]): 3040 nM
IC50 (human RORγt): 100 nM
Compound: C[C@H]1[C@H](C)CC[C@]2(C(=O)O)CC[C@]3(C)C(=CC[C@@H]4[C@@]5(C)CCC(=O)C(C)(C)[C@@H]5CC[C@]43C)[C@H]12 [ursonic acid, Ursonic Acid]
IL-17A protein expression in brains and spinal cords (IL-17A): effectively reduced
EAE-induced BBB disruption (brain BSA-Cy5.5 accumulation) [4]: remitted the EAE-induced BBB disruption obviously
EAE induced body weight loss [5]: significantly reversed
mean disease onset date [5]: 17.3 ± 0.5 days
fluorescence quenching of RORγt-LBD (RORγt-LBD [6]): dose-dependently induced fluorescence quenching
frequency of pro-inflammatory TH17 cells in the spleen (TH17 cells): reduced frequency
immune cell infiltrations in white matter of spinal cords (spinal cord white matter): reduced
binding site in the crystal structure (PDB code: 6J3N) (RORγt-LBD-SRC2.2 [9]): buried in the canonical orthosteric ligand pocket
